In general, TD50 refers to the 50% point of the dose-response relation for the toxic effect studied.

Activity calls are given as the source filed them. How the calls were made is not given here.

The data set deals with rodent lifetime carcinogenesis bioassay, tumor incidence TD50. In words: chronic cancer bioassays in animals – CPDB, compiled studies (AID 1745844).

For `Cc1ccc(Cc2cnc(NCCSCc3ccc(CN(C)C)o3)[nH]c2=O)cn1`, the carcinogen call is “negative (inactive)” (mouse, strain SK&F Swiss, females, by gavage, site: gastric mucosa, lesion: carcinoid tumor, malignant, dosed 91 weeks, study length 91 weeks) and “negative (inactive)” (mouse, strain SK&F Swiss, males, by gavage, site: gastric mucosa, lesion: carcinoid tumor, malignant, dosed 91 weeks, study length 91 weeks). For the same compound, the TD50 was 2990 mg/kg/day (rat, strain SK&F Wistar, females, by gavage, site: gastric mucosa, lesion: carcinoid tumor, malignant, dosed 100 weeks, study length 100 weeks) and 3830 mg/kg/day (rat, strain SK&F Wistar, males, by gavage, site: gastric mucosa, lesion: carcinoid tumor, malignant, dosed 100 weeks, study length 100 weeks).

`CC(O)CO` (stereo unspecified): the carcinogen call by setting is: (rat, strain Charles River CD (Sprague-Dawley), females, in feed, site: liver, lesion: nodular hyperplasia, dosed 104 weeks, study length 104 weeks) “negative (inactive)”; (rat, strain Charles River CD (Sprague-Dawley), males, in feed, site: liver, lesion: nodular hyperplasia, dosed 104 weeks, study length 104 weeks) “negative (inactive)”.

With `O=CCC=O`, the TD50 is 274 mg/kg/day (inactive) (mouse, strain B6C3F1, females, by gavage, site: any site (literature study), lesion: several types, types named in the paper, dosed 103 weeks, study length 104 weeks); 568 mg/kg/day (mouse, strain B6C3F1, females, by gavage, site: liver, lesion: hepatocellular adenoma + hepatocellular carcinoma + neoplastic nodule, dosed 103 weeks, study length 104 weeks); 4410 mg/kg/day (mouse, strain B6C3F1, females, by gavage, site: lung, lesion: alveolar/bronchiolar adenoma + alveolar/bronchiolar carcinoma, dosed 103 weeks, study length 104 weeks); 217 mg/kg/day (inactive) (mouse, strain B6C3F1, males, by gavage, site: any site (literature study), lesion: several types, types named in the paper, dosed 103 weeks, study length 104 weeks); 230 mg/kg/day (mouse, strain B6C3F1, males, by gavage, site: liver, lesion: hepatocellular adenoma + hepatocellular carcinoma + neoplastic nodule, dosed 103 weeks, study length 104 weeks); 1130 mg/kg/day (mouse, strain B6C3F1, males, by gavage, site: lung, lesion: alveolar/bronchiolar adenoma + alveolar/bronchiolar carcinoma, dosed 103 weeks, study length 104 weeks). Moreover, the TD50 runs as follows: (mouse, strain Swiss, females, in drinking water, site: liver, lesion: hemangioma, dosed 52 weeks, study length 52 weeks) 24.8 mg/kg/day; (mouse, strain Swiss, females, in drinking water, site: liver, lesion: hepatoma, dosed 52 weeks, study length 52 weeks) 4.62 mg/kg/day; (mouse, strain Swiss, females, in drinking water, site: liver, lesion: hyperplastic nodule, dosed 52 weeks, study length 52 weeks) 44.3 mg/kg/day; (mouse, strain Swiss, females, in drinking water, site: liver, lesion: several types, types named in the paper, dosed 52 weeks, study length 52 weeks) 14.1 mg/kg/day; (rat, strain Fischer 344, females, by gavage, site: any site (literature study), lesion: several types, types named in the paper, dosed 103 weeks, study length 104 weeks) 164 mg/kg/day; (rat, strain Fischer 344, females, by gavage, site: liver, lesion: hepatocellular adenoma + hepatocellular carcinoma + neoplastic nodule, dosed 103 weeks, study length 104 weeks) 1950 mg/kg/day. The TD50 is 252 mg/kg/day (rat, strain Fischer 344, females, by gavage, site: thyroid gland, lesion: follicular-cell adenoma + follicular-cell carcinoma, dosed 103 weeks, study length 104 weeks); 566 mg/kg/day (rat, strain Fischer 344, males, by gavage, site: adrenal gland, lesion: cortical adenoma, dosed 103 weeks, study length 104 weeks); 184 mg/kg/day (rat, strain Fischer 344, males, by gavage, site: adrenal medulla, lesion: pheochromocytoma, dosed 103 weeks, study length 104 weeks); 41.8 mg/kg/day (rat, strain Fischer 344, males, by gavage, site: any site (literature study), lesion: several types, types named in the paper, dosed 103 weeks, study length 104 weeks); 665 mg/kg/day (rat, strain Fischer 344, males, by gavage, site: liver, lesion: hepatocellular adenoma + hepatocellular carcinoma + neoplastic nodule, dosed 103 weeks, study length 104 weeks); 67.7 mg/kg/day (rat, strain Fischer 344, males, by gavage, site: pancreatic islets + thyroid gland, lesion: islet-cell adenoma + follicular-cell adenoma + follicular-cell carcinoma, dosed 103 weeks, study length 104 weeks). Also, the TD50 is 90.3 mg/kg/day (rat, strain Fischer 344, males, by gavage, site: pancreatic islets, lesion: islet-cell adenoma + islet-cell carcinoma, dosed 103 weeks, study length 104 weeks); 80.5 mg/kg/day (rat, strain Fischer 344, males, by gavage, site: pancreatic islets, lesion: islet-cell adenoma, dosed 103 weeks, study length 104 weeks); 195 mg/kg/day (rat, strain Fischer 344, males, by gavage, site: subcutaneous tissue, lesion: fibrosarcoma + fibroma, dosed 103 weeks, study length 104 weeks); 39.8 mg/kg/day (rat, strain Fischer 344, males, by gavage, site: testis, lesion: interstitial-cell tumor, dosed 103 weeks, study length 104 weeks); 113 mg/kg/day (rat, strain Fischer 344, males, by gavage, site: thyroid gland, lesion: follicular-cell adenoma + follicular-cell carcinoma, dosed 103 weeks, study length 104 weeks); 206 mg/kg/day (rat, strain Fischer 344, males, by gavage, site: thyroid gland, lesion: follicular-cell adenoma, dosed 103 weeks, study length 104 weeks). This compound also returned a TD50 (rat, strain Fischer 344, males, by gavage, site: thyroid gland, lesion: follicular-cell carcinoma, dosed 103 weeks, study length 104 weeks) of 236 mg/kg/day. Further, under “mouse, strain Swiss, females, in drinking water, site: lung, lesion: adenoma, dosed 52 weeks, study length 52 weeks”, the carcinogen call is “negative (inactive)”.

On to `CN(CCc1ccccc1)N=O`, for which the TD50 reads like this: (rat, strain Fischer 344, males, in drinking water, site: esophagus, lesion: several types, types named in the paper, dosed 32 weeks, study length 127 weeks) 0.0401 mg/kg/day; (rat, strain Fischer 344, males, in drinking water, site: esophagus, lesion: several types, types named in the paper, dosed 104 weeks, study length 127 weeks) 0.0422 mg/kg/day; (rat, strain Fischer 344, males, in drinking water, site: forestomach, lesion: basal-cell carcinoma, dosed 32 weeks, study length 127 weeks) 2.57 mg/kg/day; (rat, strain Fischer 344, males, in drinking water, site: forestomach, lesion: basal-cell carcinoma, dosed 104 weeks, study length 127 weeks) 0.0422 mg/kg/day; (rat, strain Fischer 344, males, in drinking water, site: forestomach, lesion: basal-cell papilloma, dosed 32 weeks, study length 127 weeks) 2.21 mg/kg/day; (rat, strain Fischer 344, males, in drinking water, site: liver, lesion: hyperplastic nodule, dosed 104 weeks, study length 127 weeks) 0.184 mg/kg/day. Further, the TD50 is 0.184 mg/kg/day (rat, strain Fischer 344, males, in drinking water, site: tongue, lesion: basal-cell carcinoma, dosed 104 weeks, study length 127 weeks); 0.00788 mg/kg/day (rat, strain Fischer 344, males, in drinking water, site: upper gastrointestinal tract, lesion: several types, types named in the paper, dosed 32 weeks, study length 127 weeks); 0.0136 mg/kg/day (rat, strain Fischer 344, males, in drinking water, site: upper gastrointestinal tract, lesion: several types, types named in the paper, dosed 104 weeks, study length 127 weeks). Besides, under “rat, strain Fischer 344, males, in drinking water, site: tongue, lesion: basal-cell carcinoma, dosed 32 weeks, study length 127 weeks”, the carcinogen call was “positive”.

In the case of `Cc1cc(N=Nc2c(O)ccc3ccccc23)c(S(=O)(=O)O)cc1Cl`, the TD50 was 18200 mg/kg/day (inactive) (mouse, strain B6C3F1, females, in feed, site: any site (literature study), lesion: several types, types named in the paper, dosed 103 weeks, study length 105 weeks); 9240 mg/kg/day (mouse, strain B6C3F1, females, in feed, site: liver, lesion: hepatocellular adenoma + hepatocellular carcinoma + neoplastic nodule, dosed 103 weeks, study length 105 weeks); 9200 mg/kg/day (mouse, strain B6C3F1, females, in feed, site: lung, lesion: alveolar/bronchiolar adenoma + alveolar/bronchiolar carcinoma, dosed 103 weeks, study length 105 weeks); 2120 mg/kg/day (inactive) (mouse, strain B6C3F1, males, in feed, site: any site (literature study), lesion: several types, types named in the paper, dosed 103 weeks, study length 104 weeks); 781 mg/kg/day (mouse, strain B6C3F1, males, in feed, site: liver, lesion: hepatocellular adenoma + hepatocellular carcinoma + neoplastic nodule, dosed 103 weeks, study length 104 weeks); 5390 mg/kg/day (mouse, strain B6C3F1, males, in feed, site: lung, lesion: alveolar/bronchiolar adenoma + alveolar/bronchiolar carcinoma, dosed 103 weeks, study length 104 weeks). The TD50 was 1140 mg/kg/day (rat, strain Fischer 344, females, in feed, site: liver, lesion: hepatocellular adenoma + hepatocellular carcinoma + neoplastic nodule, dosed 103 weeks, study length 104 weeks); 1140 mg/kg/day (rat, strain Fischer 344, females, in feed, site: liver, lesion: neoplastic nodule, dosed 103 weeks, study length 104 weeks); 331 mg/kg/day (rat, strain Fischer 344, males, in feed, site: any site (literature study), lesion: several types, types named in the paper, dosed 103 weeks, study length 104 weeks); 104 mg/kg/day (rat, strain Fischer 344, males, in feed, site: liver + spleen, lesion: hepatocellular carcinoma + neoplastic nodule + fibrosarcoma + leiomyosarcoma + osteosarcoma + sarcoma, NOS, dosed 103 weeks, study length 104 weeks); 357 mg/kg/day (rat, strain Fischer 344, males, in feed, site: liver, lesion: hepatocellular adenoma + hepatocellular carcinoma + neoplastic nodule, dosed 103 weeks, study length 104 weeks); 357 mg/kg/day (rat, strain Fischer 344, males, in feed, site: liver, lesion: hepatocellular carcinoma + neoplastic nodule, dosed 103 weeks, study length 104 weeks). Further, the TD50 is, setting by setting: (rat, strain Fischer 344, males, in feed, site: liver, lesion: neoplastic nodule, dosed 103 weeks, study length 104 weeks) 265 mg/kg/day; (rat, strain Fischer 344, males, in feed, site: spleen, lesion: fibrosarcoma + leiomyosarcoma + osteosarcoma + sarcoma, NOS, dosed 103 weeks, study length 104 weeks) 146 mg/kg/day; (rat, strain Fischer 344, males, in feed, site: spleen, lesion: fibrosarcoma, dosed 103 weeks, study length 104 weeks) 211 mg/kg/day; (rat, strain Fischer 344, males, in feed, site: spleen, lesion: osteosarcoma, dosed 103 weeks, study length 104 weeks) 728 mg/kg/day; (rat, strain Osborne-Mendel, males, in feed, site: testis, lesion: interstitial-cell adenoma, dosed 108 weeks, study length 108 weeks) 28600 mg/kg/day (inactive). In addition, the carcinogen call is “negative (inactive)” (rat, strain Osborne-Mendel, females, in feed, site: pituitary gland, lesion: adenoma, dosed 108 weeks, study length 108 weeks) and “negative (inactive)” (rat, strain Osborne-Mendel, males, in feed, site: all sites, lesion: fibrosarcoma, dosed 108 weeks, study length 108 weeks).

The values are drawn from PubChem BioAssay AID1745844 (Carcinogenic Potency Database (CPDB), 2022).
